Entries after “also recorded” stand apart in the source; their conditions may differ.

The subject of experiment [1] is Arabidopsis thaliana plants. Put plainly: SOA1 phenotypic analysis of herbicide-treated Arabidopsis plants. It is filed as in vivo. To be noted: for characteristic symptoms (morphological phenotype): in words; for Symptom Class: Arabidopsis sprayed with herbicide, phenotypes of the classes pictured in FIG. 12; for leafCurling (Dev.) / leafTwisting (Dev.) / leafWidth (Dev.) / matureLeafAnthocyanins (Dev.) / matureLeafChlorosis (Dev.) / matureLeafNecrosis (Dev.) / newLeafAnthocyanins (Dev.) / newLeafChlorosis (Dev.) / newLeafNecrosis (Dev.) / pointedLeaves (Dev.): numeric value standardized to mock treated plants; for tMic (Dev.): score for time required to exhibit full range of symptoms at the MIC.

Experiment [2] has as its system Arabidopsis thaliana. The experiment in a line: MOA1 gene expression profiling (22,000 gene array) of treated Arabidopsis. It is filed as in vivo. To be noted: for gene expression perturbations compared to the other treatments: MOA1, 1 hr; for No. of Lethal Genes Altered: regulated genes identified as essential for plant growth and development (internal database).
A further experiment deals with Magnaporthe grisea. It is filed as cell-based.
Experiment [3] relates to Arabidopsis thaliana. The experiment in a line: MOA1 biochemical (metabolite) profiling by LC-MS and GC-MS of treated Arabidopsis. To be noted: after one hour.
The test system of experiment [4] is Arabidopsis thaliana. The experiment in a line: MOA1 phenotypic profiling of Arabidopsis sprayed with unknown and commercial herbicides. It is filed as in vivo. To be noted: in words.
For experiment [5], the system named is Saccharomyces cerevisiae wild type strain BY4743. Put plainly: AF1 metabolite analysis (GC-MS, LC-MS) of yeast cells treated with antifungal drugs. It is filed as cell-based.
In the next experiment the test system is PSI, PROTOX. Put plainly: PSI / PROTOX inhibition (unpublished data).

With `CCNc1nc(Cl)nc(NC(C)C)n1` [Atrazine], the “characteristic symptoms (morphological phenotype)” value in experiment [1] was “rapid and widespread leaf necrosis”.

Regarding `O=C(O)c1ccccc1C(=O)Nc1cccc2ccccc12` [Naptalam], in the experiment with Arabidopsis thaliana [2], the “gene expression perturbations compared to the other treatments” value is on record as “fewest gene expression perturbations” and the “No. of Lethal Genes Altered” value came out at 3.

In the case of `CC(C)N1C(=O)c2ccccc2NS1(=O)=O` [Bentazon], the “characteristic symptoms (morphological phenotype)” value in experiment [1] was “rapid and widespread leaf necrosis”.

As for `CP(=O)(O)CCC(N)C(=O)O` (centres unmarked) [Glufosinate], in experiment [1], the “Symptom Class” value was determined as 3; the “characteristic symptoms (morphological phenotype)” value was “Chlorosis and leaf curling”; the “leafCurling (Dev.)” value came out at 2; the “leafTwisting (Dev.)” value was determined as 1. Besides, in experiment [1], the “leafWidth (Dev.)” value is reported as −2, the “matureLeafAnthocyanins (Dev.)” value is given as 0, the “matureLeafChlorosis (Dev.)” value amounted to 3 and the “matureLeafNecrosis (Dev.)” value is 0. In addition, in experiment [1], the “newLeafAnthocyanins (Dev.)” value came to 0, the “newLeafChlorosis (Dev.)” value was determined as 3, the “newLeafNecrosis (Dev.)” value worked out at 0 and the “pointedLeaves (Dev.)” value is 1. In addition, the “tMic (Dev.)” value in experiment [1] was 1. For the same compound, the “No. of Lethal Genes Altered” value with Arabidopsis thaliana [2] is recorded as 10.

Turning to `CS(=O)(=O)c1cc(C(F)(F)F)ccc1C(=O)c1cnoc1C1CC1` [Isoxaflutole], the “No. of Lethal Genes Altered” value with Arabidopsis thaliana [2] was 15. The “M. grisea growth in minimal media” value in the experiment with Magnaporthe grisea (concentration insufficient to inhibit growth) is on record as “unaffected”. For the same compound, the “M. grisea growth in minimal plus tyrosine (sole nitrogen source) media” value with Magnaporthe grisea (concentration insufficient to inhibit growth (sub-inhibitory)) is listed as “inhibited”. The “tyrosine and phenylalanine relative to the control” value with Arabidopsis thaliana [3] is recorded as “up-regulated; also recorded: began to accumulate”.

Regarding `CCSC(=O)N(CC(C)C)CC(C)C` [Butylate], in the experiment on Arabidopsis thaliana [4], the “phenotype / hierarchical cluster analysis of the eleven phenotypic characteristics” value is listed as “neither showed a strong herbicidal phenotype”.

As to `c1cc[n+]2c(c1)-c1cccc[n+]1CC2` [Diquat], in experiment [1], the “Symptom Class” value is on record as 7; the “characteristic symptoms (morphological phenotype)” value was “rapid and widespread leaf necrosis”; the “leafCurling (Dev.)” value turned out to be 2; the “leafTwisting (Dev.)” value was determined as 0. For the same compound, in experiment [1], the “leafWidth (Dev.)” value is recorded as −2, the “matureLeafAnthocyanins (Dev.)” value came out at 0, the “matureLeafChlorosis (Dev.)” value was found to be 1 and the “matureLeafNecrosis (Dev.)” value worked out at 4. In experiment [1], the “newLeafAnthocyanins (Dev.)” value worked out at 0, the “newLeafChlorosis (Dev.)” value was 1, the “newLeafNecrosis (Dev.)” value stood at 4 and the “pointedLeaves (Dev.)” value is 1. Moreover, the “tMic (Dev.)” value in experiment [1] is listed as 2.

For `CCc1cnc(C2=NC(C)(C(C)C)C(=O)N2)c(C(=O)O)c1` (centres unmarked) [Imazethapyr], in experiment [1], the “characteristic symptoms (morphological phenotype)” value was “anthocyanin accumulation in the older leaves accompanied by chlorosis of the newly emerging leaves”.

With `COC(=O)c1cc(Oc2ccc(Cl)cc2Cl)ccc1[N+](=O)[O-]` [Bifenox], the “characteristic symptoms (morphological phenotype)” value in experiment [1] was “Necrotic leaf flecks”.

For `CC[C@@H]([C@H](C)O)n1ncn(-c2ccc(N3CCN(c4ccc(OC[C@@H]5CO[C@@](Cn6cncn6)(c6ccc(F)cc6F)C5)cc4)CC3)cc2)c1=O` [Posaconazole], the “Fold Change” value in experiment [5] (metabolite anthranilic acid, platform nLC) worked out at 0; in experiment [5] (metabolite anthranilic acid, platform pLC), 0; in experiment [5] (metabolite biotin, platform LC), 0.

In the case of `CC(C)OC(=O)Nc1cccc(Cl)c1` [Chloropropham], in the experiment with Arabidopsis thaliana [4], the “phenotype / hierarchical cluster analysis of the eleven phenotypic characteristics” value is recorded as “neither showed a strong herbicidal phenotype”.

For `CC[C@@H]([C@H](C)O)n1ncn(-c2ccc(N3CCN(c4ccc(OC[C@@H]5CO[C@@](Cn6cncn6)(c6ccc(F)cc6F)C5)cc4)CC3)cc2)c1=O` [Posaconazoie], the “Fold Change” value in experiment [5] (metabolite luteolin, platform LC) is 0.

Take `CC[C@@H]([C@H](C)O)n1ncn(-c2ccc(N3CCN(c4ccc(OC[C@@H]5CO[C@@](Cn6cncn6)(c6ccc(F)cc6F)C5)cc4)CC3)cc2)c1=O` [Posaconazote]: the “Fold Change, porphobilinogen” value in experiment [5] (detected metabolite, platform nLC, p-Value 1) worked out at 0.

Regarding `CCc1cccc(C)c1N(C(=O)CCl)C(C)COC` (centres unmarked) [Metolachlor], the “PSI or PROTOX inhibitor” value in the experiment with PSI, PROTOX is on record as “neither a PSI nor a PROTOX inhibitor”.

As for `CN(C)C(=O)Nc1ccc(Cl)c(Cl)c1` [Diuron], in experiment [1], the “Symptom Class” value came to 7; the “characteristic symptoms (morphological phenotype)” value is “rapid and widespread leaf necrosis”; the “leafCurling (Dev.)” value amounted to 1; the “leafTwisting (Dev.)” value came out at 0. Further, in experiment [1], the “leafWidth (Dev.)” value is recorded as −2, the “matureLeafAnthocyanins (Dev.)” value is 0, the “matureLeafChlorosis (Dev.)” value is 2 and the “matureLeafNecrosis (Dev.)” value was 4. Besides, in experiment [1], the “newLeafAnthocyanins (Dev.)” value is listed as 0, the “newLeafChlorosis (Dev.)” value is 2, the “newLeafNecrosis (Dev.)” value is reported as 4 and the “pointedLeaves (Dev.)” value is 1. Besides, the “tMic (Dev.)” value in experiment [1] is reported as 1.

For `O=C(O)COc1ccc(Cl)cc1Cl` [2,4-D], in experiment [1], the “Symptom Class” value was 5, the “leafCurling (Dev.)” value was 1, the “leafTwisting (Dev.)” value is 2 and the “leafWidth (Dev.)” value is recorded as −1. In experiment [1], the “matureLeafAnthocyanins (Dev.)” value was determined as 1, the “matureLeafChlorosis (Dev.)” value is 2, the “matureLeafNecrosis (Dev.)” value is 0 and the “newLeafAnthocyanins (Dev.)” value was found to be 0. For the same compound, in experiment [1], the “newLeafChlorosis (Dev.)” value was determined as 1, the “newLeafNecrosis (Dev.)” value is given as 0, the “pointedLeaves (Dev.)” value was 0 and the “tMic (Dev.)” value is 2.

`CC(C)C1(C)N=C(c2ncccc2C(=O)O)NC1=O` (centres unmarked) [Imazapyr]: the “characteristic symptoms (morphological phenotype)” value in experiment [1] is “anthocyanin accumulation in the older leaves accompanied by chlorosis of the newly emerging leaves”.

On to `COc1nc(C)nc(NC(=O)NS(=O)(=O)c2ccccc2Cl)n1` [Chlorsulfuron], for which the “characteristic symptoms (morphological phenotype)” value in experiment [1] is on record as “anthocyanin accumulation in the older leaves accompanied by chlorosis of the newly emerging leaves”. In addition, in the experiment with Arabidopsis thaliana [2], the “No. of Lethal Genes Altered” value was 8.

As for `OC(Cn1cncn1)(Cn1cncn1)c1ccc(F)cc1F` [Fluconazole], in experiment [5] (LC), the “Fold Change: abscisic acid” value worked out at 0 and the “Fold Change: adenosine” value was 0.

With `O=C(O)c1cc(Oc2ccc(C(F)(F)F)cc2Cl)ccc1[N+](=O)[O-]` [Acifluorfen], the “characteristic symptoms (morphological phenotype)” value in experiment [1] is reported as “Necrotic leaf flecks”.

Regarding `C[n+]1ccc(-c2cc[n+](C)cc2)cc1` [Paraquat], in experiment [1], the “Symptom Class” value came out at 7; the “characteristic symptoms (morphological phenotype)” value is “rapid and widespread leaf necrosis”.

As for `Nc1nc[nH]n1` [Amitrole], the “characteristic symptoms (morphological phenotype)” value in experiment [1] is “leaf bleaching and leaf enlargement”. For the same compound, the “phenotype / hierarchical cluster analysis of the eleven phenotypic characteristics” value with Arabidopsis thaliana [4] is “exhibited chlorosis and not true bleaching”.

As for `COC(=O)NS(=O)(=O)c1ccc(N)cc1` [Asulam], in the experiment on Arabidopsis thaliana [2], the “gene expression perturbations compared to the other treatments” value is reported as “fewest gene expression perturbations” and the “No. of Lethal Genes Altered” value was 5.

Consider `O=C(O)CNCP(=O)(O)O` [Glyphosate], for which, in experiment [1], the “Symptom Class” value is recorded as 4, the “characteristic symptoms (morphological phenotype)” value is given as “anthocyanin accumulation in the older leaves accompanied by chlorosis of the newly emerging leaves”, the “leafCurling (Dev.)” value is reported as 0 and the “leafTwisting (Dev.)” value is recorded as 0. In experiment [1], the “leafWidth (Dev.)” value was found to be 0, the “matureLeafAnthocyanins (Dev.)” value is reported as 3, the “matureLeafChlorosis (Dev.)” value worked out at 1 and the “matureLeafNecrosis (Dev.)” value is listed as 3. In experiment [1], the “newLeafAnthocyanins (Dev.)” value was 1, the “newLeafChlorosis (Dev.)” value was 2, the “newLeafNecrosis (Dev.)” value was 0 and the “pointedLeaves (Dev.)” value came out at 1. Besides, the “tMic (Dev.)” value in experiment [1] came out at 2. Besides, the “M. grisea growth with nitrate, nitrite, or glutamate as the sole nitrogen source” value in the experiment on Magnaporthe grisea is on record as “inhibited growth”. In the experiment on Magnaporthe grisea (250 μg/ml), the “Growth of M. grisea with ammonium or glutamine as nitrogen source, Tier 4” value was “Little growth defect”; the “M. grisea growth results for Tiers 3 and 4” value is on record as “nearly identical as compared to Unknown 4”. For the same compound, the “M. grisea growth inhibition, effect of aromatic amino acids in the media” value in the experiment on Magnaporthe grisea (1.0 mg/ml) is “remediated by inclusion of aromatic amino acids”. Also, the “tyrosine (downstream metabolite) relative to the control” value in the experiment on Arabidopsis thaliana [3] is on record as “decreased”.

With `CSc1nnc(C(C)(C)C)c(=O)n1N` [Metribuzin], the “characteristic symptoms (morphological phenotype)” value in experiment [1] is “rapid and widespread leaf necrosis”.

(Values after US6873914B2, “Methods and systems for analyzing complex biological systems” (Icoria, Inc., priority 2001, dated 2005).)
